Our source for the S5/S0 values is patent US20100273189A1, “NON SEPARATION ASSAYS WITH SELECTIVE SIGNAL INHIBITORS” (BECKMAN COULTER, INC., priority 2009, published 2010).

The experiment deals with PSA. Put plainly: Screening SSIA by homogeneous PSA immunoassay. In kind it is biochemical. How it is done: This example presents one method used for testing of candidate compounds for functionality as SSIA in assays of the present disclosure. Testing was conducted in a model screening immunoassay of the protein PSA. Mouse anti-PSA tests were run using a 96-well microtiter plate format. […] The plate was incubated at 37° C. for 10 minutes. A 5 μL aliquot of the test compound (various concentrations) was added to each well. Chemiluminescence was triggered by the addition of 100 μL of a solution of trigger solution A. The chemiluminescent flash was integrated for 5 seconds after the addition of the trigger solution using a Luminoskan Asent® plate luminometer, (Thermo Fischer Scientific, Inc., Waltham, Mass.).
It is desirable that the improvement factor be at least 2 (S5/S0≧ about 20-30) and more desirable that improvement factor be at least 5 (S5/S0≧ about 50), yet more desirable that S5/S0 be ≧100 in the present screen.

Where [1] appears, read: PSA 129 ng/mL (S5) vs zero, test compound final conc. 0.122 mM.
[2] abbreviates: PSA 129 ng/mL (S5) vs zero, test compound final conc. 0.061 mM.
Where [3] appears, read: PSA 129 ng/mL (S5) vs zero, test compound final conc. 0.244 mM.
[4] abbreviates: PSA 129 ng/mL (S5) vs zero, test compound final conc. 122 uM.

Where two headings read alike, the source gives them in different places.

`COc1ccccc1N` displayed an S5/S0 under setting [1] of 7.
The compound `c1ccc2c(c1)Cc1ccccc1N2` yielded an S5/S0 of 120.
On to `NNC(=O)c1ccccc1O`, for which the S5/S0 under setting [2] worked out at 23.
As for `O=C1C=C(O)C(=O)C=C1O`, under setting [3], the S5/S0 was 14.
Turning to `Nc1cccc(Cl)c1O`, under setting [3], the S5/S0 worked out at 300.
On to `N[C@@H](CS)C(=O)O` [L-Cysteine], for which, under setting [4], the S5/S0 is 22.
In the case of `Nc1cc2ccccc2cc1O`, under setting [3], the S5/S0 is 67.
The compound `Nc1cc(Cl)ccc1O` had an S5/S0 under setting [3] of 205.
`O=C(O)/C=C/c1ccc(O)c(O)c1` came in with an S5/S0 under setting [1] of 116.
`O=C1O[C@H]([C@H](O)CO)C(O)=C1O` returned an S5/S0 under setting [4] of 10.3.
Consider `Nc1ccccc1O` [drawing 47], for which the S5/S0 under setting [1] was determined as 649.
As to `O=C(O)/C(O)=C(/O)C(=O)O`, the S5/S0 under setting [1] was determined as 30.
The same measure, in the same setting: the same measure for `COc1ccccc1O`: 13; for `c1ccc2c(c1)Nc1ccccc1O2`: 605; for `CC1(C)OC(=O)C(O)=C1O`: 467.
Under setting [2], `O=C1C(O)=C(O)C(=O)C(O)=C1O` registered an S5/S0 of 51.
For the setting “PSA 129 ng/mL (S5) vs zero, test compound final conc. 1.22 mM”, `NCCNC(=O)c1ccc(NN)cc1` registered an S5/S0 of 138.
`c1ccc2c(c1)Cc1ccccc1O2` showed an S5/S0 under setting [1] of 4.
On to `OB(O)c1cc(Cl)ccc1O`, for which, under setting [3], the S5/S0 is 22.
`C[C@H]1OC(=O)C(O)=C1O` yielded an S5/S0 under setting [1] of 423.
The compound `COc1cc(O)ccc1O` had an S5/S0 (PSA 129 ng/mL (S5) vs zero, test compound final conc. 0.111 mM) of 161.
Where the note is “PSA 129 ng/mL (S5) vs zero, test compound final conc. 0.031 mM”, `O=C1C(O)=C(Cl)C(=O)C(O)=C1Cl` came in with an S5/S0 of 7.
As to `O=c1c(O)c(-c2ccccc2)oc2ccc(O)cc12`, under setting [1], the S5/S0 turned out to be 9.
The compound `O=S(=O)([O-])CCCN1c2ccccc2Cc2ccccc21.[Na+]` displayed an S5/S0 under setting [3] of 15.
`O=c1c(O)c(-c2ccccc2)oc2cc(O)ccc12` gave an S5/S0 under setting [1] of 14.
As to `O=C1O[C@H]([C@@H](O)CO)C([O-])=C1O.[Na+]` [ascorbate sodium salt (ascorbate anion), ascorbate sodium salt], the S5/S0 under setting [1] is recorded as 495.
`NN` [NH2NH2]: under “PSA 129 ng/mL (S5) vs zero, test compound final conc. 244 uM”, the S5/S0 amounted to 15.
As for `O=C1O[C@H]([C@@H](O)CO)C(O)=C1O` [drawing 64], under setting [4], the S5/S0 is on record as 10.3.
Still for that read-out and setting: the same measure for `COC1=C(O)C(=O)O[C@@H]1[C@@H](O)CO`: 16.
Turning to `Nc1ccc2[nH]ncc2c1`, the S5/S0 (PSA 129 ng/mL (S5) vs zero, test compound final conc. 12.2 mM) is 10.
Turning to `COc1cc(C(C)(C)C)c(O)c(C(C)(C)C)c1`, under setting [1], the S5/S0 is on record as 19.
`C=CCc1ccc(O)c(OC)c1` came in with an S5/S0 under setting [3] of 30.
With `O=C(c1ccccc1)C1c2ccccc2Nc2ccccc21`, under setting [1], the S5/S0 came out at 9.
The compound `Oc1ccc(O)c(Br)c1` displayed an S5/S0 under setting [1] of 570.
On the same count and under the same terms, the same measure for `Oc1ccc([C@@H]2Oc3cc(O)c(O)cc3C[C@@H]2O)cc1O`: 323.
`Nc1ccc2ccccc2c1O` gave an S5/S0 under setting [3] of 109.
As for `O=c1c2ccccc2[nH]c2ccccc12`, the S5/S0 under setting [1] came to 14.
Consider `[N-]=[N+]=[N-].[Na+]` [NaN3], for which the S5/S0 (PSA 129 ng/mL (S5) vs zero, test compound final conc. 34 uM) is recorded as 19.
`c1ccc2c(c1)Cc1ccccc1S2` showed an S5/S0 under setting [1] of 9.
On the same count and under the same terms, the same measure for `Nc1ccccc1S`: 234; for `Nc1c(O)ccc2ccccc12`: 63; for `Cc1ccc(O)c(O)c1`: 142.
Take `O=C1O[C@H]([C@@H](O)CO)C([O-])=C1O.[Na+]`: the S5/S0 under setting [4] is on record as 9.2.
`Nc1ccccc1B(O)O`: the S5/S0 under setting [1] was 108.
In turn, `CC1=C(O)C(=O)C(C)O1` (stereo not drawn) had an S5/S0 (PSA 129 ng/mL (S5) vs zero, test compound final conc. 1.25 mM) of 237.
Under setting [1], `O=c1c(O)c(-c2ccccc2)oc2ccccc12` had an S5/S0 of 13.
Turning to `Cc1cc(-c2cc(C)c(N)c(C)c2)cc(C)c1N` [TMB], the S5/S0 (PSA 129 ng/mL (S5) vs zero, test compound final conc. 61 uM) was determined as 20.
`O=S([O-])[O-].[Na+].[Na+]` [Na2SO3] displayed an S5/S0 (PSA 129 ng/mL (S5) vs zero, test compound final conc. 15 uM) of 59.
As to `Nc1cc(C[C@H](N)C(=O)O)ccc1O`, the S5/S0 under setting [3] was found to be 448.
The compound `Oc1c(F)c(F)c(O)c(F)c1F` displayed an S5/S0 (PSA 129 ng/mL (S5) vs zero, test compound final conc. 0.014 mM) of 50.
Turning to `Nc1c(O)cc(S(=O)(=O)O)c2ccccc12`, under setting [1], the S5/S0 stood at 65.
The same measure, in the same setting: the same measure for `O=C(O)c1cc(O)c2ccccc2n1`: 6.
`O=C(O)c1ccc(O)c(O)c1`: the S5/S0 under setting [1] was determined as 178.
Same read-out and setting: the same measure for `O=c1ccc2cc(O)c(O)cc2o1`: 105.
For the compound `Nc1ccc(O)cc1O`, the S5/S0 (PSA 129 ng/mL (S5) vs zero, test compound final conc. 0.030 mM) came to 161.
In the case of `O=C(O)c1cccc(O)c1O`, the S5/S0 under setting [1] was 22.
Still for that read-out and setting: the same measure for `O=C(O)C1c2ccccc2Oc2ccccc21`: 7.
On to `O=C1O[C@H]([C@@H](O)CO)C(=O)C1=O`, for which the S5/S0 under setting [1] is 26.
Take `Oc1ccc(Cl)cc1O` [drawing 77]: the S5/S0 under setting [3] came out at 409.
Turning to `Nc1ncc[nH]1`, the S5/S0 (PSA 129 ng/mL (S5) vs zero, test compound final conc. 24.4 mM) worked out at 14.
